Article PMC13129536 (The Journal of Biological Chemistry, 2026)

System: Mtb (mc^26030)
Assay type: cell-based, Mycobacterium tuberculosis
Conditions: combined with meropenem

SMILES | FICA (apparent FIC)
c1ccc(-c2nc3cc(Cc4ccc5[nH]c(-c6ccccn6)nc5c4)ccc3[nH]2)nc1 [Compound F0850-5995] | greater than 5.0
Cc1ccc(C)c(Nc2nc(NCc3ccccc3)c3ccccc3n2)c1 [Compound F0909-0124] | greater than 5.0
